Columns and labels:
M. marinum luxCDABE = type: cell-based, Mycobacterium marinum
[1] = system: M. marinum in A. castellanii; type: cell-based, Mycobacterium marinum
[2] = system: M. marinum in BV2 microglial cells; type: cell-based, Mycobacterium marinum
Mtb H37Rv in THP-1 = system: Mtb H37Rv in THP-1; parameters: method as in Sorrentino et al, 2015; conditions: ref Sorrentino et al, 2015, cited from earlier work; for Intracelullar MIC90 in THP-1: THP1 / Mtb H37Rv infection assay; for Extracellular MIC90/ Inracellular MIC90: ratio
Mtb H37Rv = system: Mtb H37Rv; parameters: method as in Sorrentino et al, 2015; conditions: ref Sorrentino et al, 2015; cited from earlier work

Structure (SMILES) | Antibiotic assays: M. marinum luxCDABE (M. marinum luxCDABE) | Intracellular infection assays: A. castellanii / M. marinum [1] | Intracellular infection assays: BV2 / M. marinum [2] | Growth inhibition / Cytotoxicity assays: D. discoideum GFP-ABD (D. discoideum GFP-ABD) | Growth inhibition / Cytotoxicity assays: BV2 cells (BV2 cells) | Intracelullar MIC90 in THP-1 (Mtb H37Rv in THP-1) [µM] | Extracellular MIC90/ Inracellular MIC90 (Mtb H37Rv in THP-1) | Extracellular MIC90 (Mtb H37Rv) [µM]
FC(F)(F)c1cc(SCc2ccccc2)nc(-c2ccccn2)n1 [GSK847913A] | 0.00 | 0.90 | 1.39 | 0.94 | False | 1.85 | 1.78 | 3.3
CCc1ccc(CN2CCC3(CC2)OCCc2sccc23)s1 [GSK2200160A] | 0.35 | 0.77 | 1.09 | 0.03 | False | 0.21 | 4.76 | 1
Cc1ccc(C2CC(C(F)(F)F)n3ncc(C(=O)NCc4ccc5c(c4)OCO5)c3N2)cc1 (centres unmarked) [GSK937733A] | 1.00 | 1.38 | 1.64 | 0.94 | False | 0.61 | 8.85 | 5.4
Cc1nn(Cc2ccccc2)c(Cl)c1C(=O)NC1CCCCCC1 [GSK636544A] | 0.00 | 1.07 | 1.35 | 0.93 | False | 1.85 | 2.81 | 5.2
O=C(NCc1ccccc1F)N1CCN(Cc2ccc(Br)s2)CC1 [GSK1758774A] | 1.00 | 1.13 | 1.05 | 0.85 | False | 5.55 | 1.19 | 6.6
c1ccc(-c2csc(Nc3nc4cc5c(cc4s3)OCO5)n2)nc1 [GSK735826A] | 0.00 | 0.98 | 1.47 | 0.86 | False | 1.85 | 1.46 | 2.7
Cc1cc(OCC(=O)NCc2ccccc2)c2cc(Br)ccc2n1 [GSK124576A] | 0.00 | 1.13 | 1.05 | 0.91 | False | 5.55 | 0.41 | 2.3
c1ccc(CCNc2cc(-c3ccccc3)nc3nncn23)cc1 [GSK1402290A] | 0.14 | 1.08 | 1.11 | 0.84 | False | 5.55 | 0.99 | 5.5
CCc1ccc(C2CC(C(F)(F)F)n3ncc(C(=O)NCc4ccc(OC)cc4)c3N2)cc1 (centres unmarked) [GSK1589673A] | 1.00 | 1.34 | 1.29 | 1.16 | False | 0.61 | 8.03 | 4.9
O=C(Cc1ccc(F)cc1)Nc1nc(-c2ccccn2)cs1 [GSK1570606A] | 0.00 | 1.21 | 1.05 | 0.06 | False | >50 |  | 
O=C(Nc1nnc(-c2ccc(Cl)s2)o1)c1ccc(Cl)s1 [GSK316438A] | 0.09 | 1.32 | 1.30 | 0.70 | False | >50 |  | 
O=C(CCCSc1ccccc1)NNC(=O)c1cccs1 [GSK2157753A] | 0.11 | 1.00 | 1.67 | 1.04 | False | >50 |  | 
CCc1c(C)nc(-n2nc(C)cc2NC(=O)c2ccccc2SC)[nH]c1=O [GSK1783710A] | 0.67 | 1.00 | 1.11 | 0.94 | False | >50 |  | 
NC(=O)c1cc(-c2ccsc2)ccc1OCCOc1ccccc1 [GSK1365028A] | 0.00 | 1.14 | 1.42 | 0.94 | False | >50 |  | 
c1ccc(Cc2nnc(Sc3ccnc(N4CCN(c5ccncc5)CC4)n3)n2CCN2CCOCC2)cc1 [GSK547511A] | 0.13 | 0.94 | 1.36 | 1.02 | False | >50 |  | 
O=C(c1cnn(C(=O)c2ccco2)c1)c1cc(F)ccc1O [GSK1310678A] | 0.00 | 0.98 | 1.17 | 1.12 | False |  |  | 
O=C(OCc1c(F)cccc1Cl)c1ccc(-n2ncc(Cl)c(Cl)c2=O)cc1 [GSK1826825A] | 0.13 | 0.95 | 1.71 | 1.04 | False |  |  | 
Cc1cccc(-c2nc(Nc3ccncn3)c3sccc3n2)n1 [GSK153890A] | 0.00 | 1.21 | 1.17 | 1.05 | False |  |  | 
CN(C)S(=O)(=O)c1ccc(C(=O)Nc2nnc(-c3ccc(Cl)s3)o2)cc1 [GSK991960A] | 0.15 | 1.06 | 1.20 | 0.90 | False |  |  | 
CCOc1ccc(OCc2ccc(C(=O)NNC(=O)c3ccc([N+](=O)[O-])o3)cc2)cc1 [GSK426032A] | 0.00 | 0.94 | 1.27 | 1.02 | False | >50 |  | 

From PMC5834492, “Antimycobacterial drug discovery using Mycobacteria-infected amoebae identifies anti-infectives and new molecular targets” (Scientific Reports, 2018)
